According to US20020019378A1, “COMPOUNDS” (priority 1997, published 2002):

Assays:
[1] = molecular target: T1, Human Glucocorticoid Receptor (Homo sapiens, UniProt P04150); assay: Functional in vitro glucocorticoid activity assay: Hela cells stably transfected with sPAP reporter gene under MMTV LTR promoter; assay type: cell-based; conditions: 72 hours incubation, values given as 'less than (about)', read-out: EC50 (sPAP transcription, glucocorticoid activity)
T1 construct: endogenous in cells; host or cells: HeLa cells stably transfected with an MMTV-LTR sPAP reporter
T1 sequence (P04150 1-777): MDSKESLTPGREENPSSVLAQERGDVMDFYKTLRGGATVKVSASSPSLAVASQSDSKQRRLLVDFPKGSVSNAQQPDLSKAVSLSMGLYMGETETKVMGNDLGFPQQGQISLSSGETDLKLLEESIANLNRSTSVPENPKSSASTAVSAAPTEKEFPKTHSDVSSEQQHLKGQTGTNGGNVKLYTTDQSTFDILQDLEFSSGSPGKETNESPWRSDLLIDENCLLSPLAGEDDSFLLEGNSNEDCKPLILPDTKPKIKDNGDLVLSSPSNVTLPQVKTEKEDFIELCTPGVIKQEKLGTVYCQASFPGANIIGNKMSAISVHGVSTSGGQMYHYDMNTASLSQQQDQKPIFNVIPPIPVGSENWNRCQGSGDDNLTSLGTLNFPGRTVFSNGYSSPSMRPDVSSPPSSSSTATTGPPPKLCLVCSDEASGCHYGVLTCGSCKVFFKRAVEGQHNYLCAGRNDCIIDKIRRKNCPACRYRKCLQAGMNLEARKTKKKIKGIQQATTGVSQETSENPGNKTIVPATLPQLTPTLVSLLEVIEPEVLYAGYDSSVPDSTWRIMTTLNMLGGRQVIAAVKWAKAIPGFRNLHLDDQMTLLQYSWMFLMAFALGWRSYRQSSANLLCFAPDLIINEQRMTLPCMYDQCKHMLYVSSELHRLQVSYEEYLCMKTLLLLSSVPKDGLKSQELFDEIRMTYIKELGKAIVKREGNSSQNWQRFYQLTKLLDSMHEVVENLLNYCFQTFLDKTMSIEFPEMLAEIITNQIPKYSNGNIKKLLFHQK
Excerpt: The functional assay used was a modification of the method described by T. S Berger et al, of J. of Steroid Biochem. Molec. Biol. 1992, 41 (3-8), 733-738, “Interaction of Glucocorticoid analogues with the Human Glucocorticoid Receptor”. Thus, Hela cells were stably transfected with a detectable reporter gene (secreted placental alkaline phosphatase, sPAP) under the control of a glucocorticoid response promoter (the LTR of the mouse mammary tumour virus, MMTV). Various concentrations of standard (dexamethasone) or compounds of the invention were incubated with transfected Hela cells for 72 hours. At the end of the incubation, substrate ([…]) for sPAP was added and the product measured by a spectrophotometric method. Increased absorbance reflected increased sPAP transcription and concentration-response lines were constructed such that EC50-values could be estimated.

[2] = molecular target: human serum paraoxonase (Homo sapiens, UniProt P27169); assay: Hydrolysis by human serum paraoxonase (enzymatic hydrolysis test method); assay type: in vitro ADME; conditions: 5% bovine serum albumin, 20 mM CaCl2, 37° C.
human serum paraoxonase, sequence (P27169 whole entry): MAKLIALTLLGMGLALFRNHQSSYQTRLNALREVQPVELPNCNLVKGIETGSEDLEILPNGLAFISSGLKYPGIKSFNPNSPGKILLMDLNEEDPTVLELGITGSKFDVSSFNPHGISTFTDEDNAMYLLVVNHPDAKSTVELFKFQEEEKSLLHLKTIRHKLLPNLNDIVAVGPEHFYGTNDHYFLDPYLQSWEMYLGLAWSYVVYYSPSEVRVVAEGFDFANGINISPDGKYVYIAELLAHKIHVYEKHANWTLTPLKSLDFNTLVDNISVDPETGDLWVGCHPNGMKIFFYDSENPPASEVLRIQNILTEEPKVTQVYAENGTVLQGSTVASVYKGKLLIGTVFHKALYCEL
Method: The compounds herein have relatively short half-lives in blood in vitro. A test method for determining the half-life of the compounds under defined enzymatic hydrolysis conditions in vitro is now described. The test method is believed to provide a suitable indicator as to effects in vivo. In the test method, the hydrolysis of test compounds by a lactonase enzyme is monitored using RP HPLC with UV detection.
The ‘enzymatic hydrolysis test method’ is as follows: Incubations are carried out in 1 ml volumes in an aqueous medium containing 5% bovine serum albumin in the presence of 20 mM CaCl2. The solutions are preincubated at 37° C. for 5 minutes before the addition of the test compound (5 μl of a 5 mg/ml solution in DMSO) and then lactonase enzyme (10 μl to the 1 ml incubations). Control incubations containing no enzyme are also included. The enzymatic hydrolysis is monitored by removal of aliquots and quenching the reaction by the addition of an equal volume of acetonitrile. The samples are vortex mixed, then centrifuged and the supernatants are transferred to autosampler vials for HPLC analysis.
In a suitable HPLC procedure, aliquots (20 μl) of the supernatants are injected onto a Zorbax Rx C8 column (250×4.6mm; Hichrom). The column is maintained at 40° C. and eluted at a flow rate of 1.0 mL/min with a mobile phase of acetonitrile: 50 mM ammonium formate (65:35) adjusted to pH 4.2 with formic acid. Detection is by UV absorbance at 240 nm, and chromatographic peak areas for both parent and metabolite are measured.
In a preferred aspect, the half-life of each compound may be determined by a method in which peak areas are plotted against time on a log-linear scale, and the half lives determined by extrapolation or interpolation of a straight line joining two points.
The above described ‘enzymatic hydrolysis test method’ employs lactonase enzyme. Suitable forms of lactonase enzyme include human serum paraoxonase or a recombinant form thereof, or purified lactonase, obtained from human plasma as described hereinafter. Purification of human serum paraoxonase is described by C E Furlong et al, Chem.Biol.Interactions, Vol 87, p35-48, (1993) and recombinant human serum paraoxonase is described in International Patent application No. WO 96/01322
The susceptibility to hydrolysis by human serum paraoxonase of certain of the compounds of the Examples was assessed using the test protocol of the ‘enzymatic hydrolysis test method’ described herein.

[3] = Stability in human plasma test method; assay type: in vitro ADME; conditions: 37° C.
Method: The stability of various of the compounds of the Examples in human plasma was tested using the following ‘stability in human plasma’ test method: 500 μl aliquots of human plasma in screw capped polypropylene tubes were preincubated at 37° C. in a waterbath for 5 minutes. The plasma samples were then spiked with 5 μl of test compound (nominally 5 mg/ml in DMSO). Aliquots (100 μl ) were removed immediately and after 5 minutes and mixed with an equal volume of acetonitrile. The samples were centrifuged and the supernatants were transferred to autosampler vials for HPLC and half-life analysis.
In the HPLC procedure, aliquots (20 μl) of all the supernatants were injected onto a Zorbax Rx C8 column (250×4.6mm; Hichrom). The column was maintained at 40° C. and eluted at a flow rate of 1.0 mL/min with a mobile phase of acetonitrile: 50 mM ammonium formate (65:35) adjusted to pH 4.2 with formic acid. Detection was by UV absorbance at 240 nm, and chromatographic peak areas for both parent and metabolite were measured
To determine the half-life, for each compound peak areas were plotted against time on a log-linear scale, and the half lives determined by extrapolation or interpolation of a straight line joining two points.

[4] = Stability in human lung S9; assay type: in vitro ADME; conditions: human lung S9 diluted 1:1 with phosphate buffer pH 7.4, NADPH, 37° C.
Method: The stability of the compound of Examples 4 and 6 in a model human lung environment was assessed using the following test protocol: Incubations were carried out, at 37° C., in 500 μL volumes of human lung S9 diluted 1:1 with 10 mM phosphate buffer pH 7.4 to which was added 50 μl of 30 mg/ml (Aq) NADPH. The reactions were started by the addition of 5 μl of test compound (nominally 5 mg/ml solution in DMSO). Aliquots (100 μl) were removed immediately and after 1 hour and mixed with an equal volume of acetonitrile to stop the reaction. Samples were centrifuged and the supernatants were transferred to autosampler vials for HPLC analysis and half-life analysis using methods identical to those described in the ‘stability in human plasma’ test protocol described above. Control incubations containing no lung S9 were also included.

Compound	EC50 [1] [nM]	Hydrolysis by human serum paraoxonase [2]	half-life at 49.5 µg/mL [3] [min]	half-life at 45 µg/mL [4] [min]
CCC(=O)OC1(C(=O)SC2COC(=O)O2)C(C)CC2C3CC(F)C4=CC(=O)C=CC4(C)C3(F)C(O)CC21C (single isomer, unassigned) [Example 7 isomer A, 6α,9α-Difluoro-11β-hydroxy-16α-methyl-3-oxo-17α-propionyloxy-androsta-1,4-diene-17β-carbothioic acid S-(2-oxo-1,3-dioxolan-4-yl) ester]	< 500	hydrolysed	–	–
CCC(=O)OC1(C(=O)OC2COC(=O)O2)C(C)CC2C3CC(F)C4=CC(=O)C=CC4(C)C3(F)C(O)CC21C (single isomer, unassigned; isomer a) [Example 9 isomer A, 6α,9α-Difluoro-11β-hydroxy-16α-methyl-3-oxo-17α-propionyloxy-androsta-1,4-diene-17β-carboxylic acid O-(2-oxo-1,3-dioxolan-4-yl) ester]	–	hydrolysed	–	–
CSC(=O)[C@@]1(OC(=O)CSC2COC(=O)C2)[C@H](C)C[C@H]2[C@@H]3C[C@H](F)C4=CC(=O)C=C[C@]4(C)[C@@]3(F)[C@@H](O)C[C@@]21C (stereo partly drawn) [Example 3, 6α,9α-Difluoro-11β-hydroxy-16α-methyl-3-oxo-17α-(2-oxo-tetrahydro-furan-4-ylsulfanyl-acetoxy)-androsta-1,4-diene-17β-carbothioic acid methyl ester]	< 250	hydrolysed	< 10	–
CC12CCC(=O)C=C1C(F)CC1C3CC4OC(CSC5CCOC5=O)OC4(C(=O)CO)C3(C)CC(O)C12F (stereo not drawn) [Example 4, 6α,9α-Difluoro-11β,21-dihydroxy-16α, 17α-[2-(2-oxo-tetrahydro-furan-3-yl)sulfanyl]ethylidenedioxy-pregn-4-ene-3,20-dione]	< 250	hydrolysed	< 10	> 60
Nc1c(Cl)cc(C(O)CNCCCSC2CCOC2=O)cc1Cl.O=C(O)C(F)(F)F (stereo not drawn) [Example 6, 3-[3-[2-(4-Amino-3,5-dichlorophenyl)-2-hydroxyethylamino]propylsulfanyl]-dihydro-furan-2-one trifluoroacetate]	–	–	< 10	> 60
CCC(=O)O[C@]1(C(=O)SCc2oc(=O)oc2C)[C@H](C)C[C@H]2[C@@H]3C[C@H](F)C4=CC(=O)C=C[C@]4(C)[C@@]3(F)[C@@H](O)C[C@@]21C [Example 10, 6α,9α-Difluoro-11β-hydroxy-16α-methyl-3-oxo-17α-propionyloxy-androsta-1,4-diene-17β-carbothioic acid S-(5-methyl-2-oxo-1,3-dioxol-4-ylmethyl) ester]	< 500	–	< 10	–
CCC(=O)OC1(C(=O)OCc2oc(=O)oc2C)C(C)CC2C3CC(F)C4=CC(=O)C=CC4(C)C3(F)C(O)CC21C (stereo not drawn) [Example 12, 6α,9α-Difluoro-11β-hydroxy-16α-methyl-3-oxo-17α-propionyloxy-androsta-1,4-diene-17β-carboxylic acid O-(5-methyl-2-oxo-1,3-dioxol-4-ylmethyl) ester]	–	hydrolysed	–	–
